# Like-named read-outs stand apart in the source and are kept apart here.
# Legend:
# [1] = Measuring pharmacokinetics parameters in rats after intragastric administration; type: in vivo; conditions: male, plasma; rat, PO, 5 mg/kg, 20% sulfobutyl-β-cyclodextrin
# Procedure: The pharmacokinetic parameters of compounds of the present application were determined by using the following method.
# Healthy male adult rats (7-9 weeks old) were used in this study. Each group of animals (3 male rats) was intragastrically administered once at a single dose of 5 mg/kg. The animals in the intragastric administration group were fasted overnight before this study. The fasting time period was from 10 hours before administration to 4 hours after administration.
# Blood samples were taken at 0.25, 0.5, 1, 2, 4, 6, 8 and 24 h after administration. The animals were anesthetized with isoflurane using an animal anesthesia machine, and then 0.3 mL whole blood samples were taken from the fundus venous plexus. The blood samples were placed in heparin anticoagulant tubes, and centrifuged for 5 min at 4° C. and 4000 rpm. The resulting plasmas were transferred to centrifuge tubes, and stored at −80° C. until analysis.
# Verified LC-MS/MS method was used to analyze the plasma samples. Plasma concentration-time data of animals were analyzed using WinNonlin (Professional Edition, version 6.3; Pharsight Company) software. The non-compartmental model was introduced for concentration analysis.
# CYP1A2 = CYP1A2 (Homo sapiens (Human), UniProt P05177); assay: IC50 of inhibiting CYP enzyme system, human liver microsomes; type: in vitro ADME; conditions: read-out: IC50 in inhibiting CYP Enzyme System 1A2
# Sequence of CYP1A2 (P05177 whole entry): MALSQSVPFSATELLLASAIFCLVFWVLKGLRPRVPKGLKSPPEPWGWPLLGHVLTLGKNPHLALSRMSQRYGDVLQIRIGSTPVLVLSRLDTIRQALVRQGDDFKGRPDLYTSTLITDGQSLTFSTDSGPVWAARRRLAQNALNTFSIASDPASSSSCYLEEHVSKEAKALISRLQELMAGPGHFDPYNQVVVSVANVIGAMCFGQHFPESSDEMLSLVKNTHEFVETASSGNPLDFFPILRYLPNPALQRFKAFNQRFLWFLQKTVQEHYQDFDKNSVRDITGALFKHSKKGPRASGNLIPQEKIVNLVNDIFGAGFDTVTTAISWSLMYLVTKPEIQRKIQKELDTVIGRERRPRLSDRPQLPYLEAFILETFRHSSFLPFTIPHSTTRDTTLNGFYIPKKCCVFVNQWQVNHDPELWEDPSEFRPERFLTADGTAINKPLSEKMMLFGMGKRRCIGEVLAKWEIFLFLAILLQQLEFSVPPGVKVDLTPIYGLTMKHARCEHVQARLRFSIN
# Procedure: (§1) IC50 values of compounds of the present application in inhibiting CYP enzyme system were determined by using the following method.
# (§2) Human liver microsomes frozen at −80° C. in refrigerator were placed on ice for thawing, of which 100 μL was placed in a constant temperature oscillator for incubation (1 hour) at 60° C. and 100 rpm when immediately thawing, and the rest was frozen immediately in refrigerator at −80° C. After one hour, 100 μL inactivated liver microsomes were taken out, and thereto was added 400 μL phosphate buffer, and uniformly mixed to form a 4 mg/mL solution of inactivated liver microsomes. Meanwhile, human liver microsomes frozen at −80° C. in refrigerator were placed on ice for thawing, of which 100 μL was taken out when immediately thawing, and thereto was added 400 μL phosphate buffer, and uniformly mixed to form a 4 mg/mL solution of liver microsomes. The incubation mixtures for a positive control, test compounds and a negative control were prepared according to Table 3 below:
# (§3) The above incubation mixtures were incubated for 5 minutes in a constant temperature oscillator at 37° C. and 100 rpm.
# (§4) To 2.5 μL working solution of the test compounds or positive control (the negative control was added to the working solution of the test compounds) were added 91.5 μL the incubation mixtures and 6 μL NADPH solution, and then the reaction was initiated via vortex. The resulting solutions were incubated in a constant temperature oscillator at 37° C. and 100 rpm, and the incubation time was shown in Table 4 below:
# (§5) Samples from the terminated reaction were centrifuged at 12000 rpm for 10 minutes, and supernatants were taken out for analysis.
# (§6) Analyst 1.4.2 or equivalent software was used for data processing. Integrals were detected to ensure that all peaks were properly integrated, and if necessary, adjust integral parameters.
# (§7) The quantification of an analyte was defined as a ratio of a peak area of the analyte to that of the internal standard.
# CYP2B6 = CYP2B6 (Homo sapiens (Human), UniProt P20813); assay: as above; type: in vitro ADME; conditions: read-out: IC50 in inhibiting CYP Enzyme System 2B6
# Sequence of CYP2B6 (P20813 whole entry): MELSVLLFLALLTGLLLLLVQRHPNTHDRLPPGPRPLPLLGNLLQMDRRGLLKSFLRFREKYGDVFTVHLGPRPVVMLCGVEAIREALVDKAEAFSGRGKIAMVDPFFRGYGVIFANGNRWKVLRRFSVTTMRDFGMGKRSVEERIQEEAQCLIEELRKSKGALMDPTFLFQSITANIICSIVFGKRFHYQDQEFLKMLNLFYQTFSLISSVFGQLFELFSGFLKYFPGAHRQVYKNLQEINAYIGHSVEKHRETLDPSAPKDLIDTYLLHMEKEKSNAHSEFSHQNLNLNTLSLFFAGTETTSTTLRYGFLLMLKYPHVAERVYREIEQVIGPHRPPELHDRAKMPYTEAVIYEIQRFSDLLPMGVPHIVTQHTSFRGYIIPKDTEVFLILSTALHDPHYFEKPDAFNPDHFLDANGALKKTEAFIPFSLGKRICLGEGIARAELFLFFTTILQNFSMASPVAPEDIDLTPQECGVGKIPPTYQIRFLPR
# Procedure: as §1, §2, §3, §4, §5, §6, §7
# CYP2C19 = CYP2C19 (Homo sapiens (Human), UniProt P33261); assay: as above; type: in vitro ADME; conditions: read-out: IC50 in inhibiting CYP Enzyme System 2C19
# Sequence of CYP2C19 (P33261 whole entry): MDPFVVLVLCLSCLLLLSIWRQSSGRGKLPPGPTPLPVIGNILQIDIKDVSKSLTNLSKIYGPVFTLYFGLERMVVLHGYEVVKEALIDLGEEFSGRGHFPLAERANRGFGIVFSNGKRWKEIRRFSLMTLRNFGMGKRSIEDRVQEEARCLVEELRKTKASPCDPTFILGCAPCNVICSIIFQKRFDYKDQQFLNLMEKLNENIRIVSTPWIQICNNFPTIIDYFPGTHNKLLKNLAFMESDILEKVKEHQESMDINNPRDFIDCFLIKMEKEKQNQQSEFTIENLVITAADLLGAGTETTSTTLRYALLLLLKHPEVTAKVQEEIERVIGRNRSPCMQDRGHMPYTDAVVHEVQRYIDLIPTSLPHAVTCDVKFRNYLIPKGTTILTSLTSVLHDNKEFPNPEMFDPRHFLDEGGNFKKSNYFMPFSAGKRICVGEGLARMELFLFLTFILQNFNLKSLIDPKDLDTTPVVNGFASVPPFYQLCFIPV
# Procedure: as §1, §2, §3, §4, §5, §6, §7
# CYP2C8 = CYP2C8 (Homo sapiens (Human), UniProt P10632); assay: as above; type: in vitro ADME; conditions: read-out: IC50 in inhibiting CYP Enzyme System 2C8
# Sequence of CYP2C8 (P10632 whole entry): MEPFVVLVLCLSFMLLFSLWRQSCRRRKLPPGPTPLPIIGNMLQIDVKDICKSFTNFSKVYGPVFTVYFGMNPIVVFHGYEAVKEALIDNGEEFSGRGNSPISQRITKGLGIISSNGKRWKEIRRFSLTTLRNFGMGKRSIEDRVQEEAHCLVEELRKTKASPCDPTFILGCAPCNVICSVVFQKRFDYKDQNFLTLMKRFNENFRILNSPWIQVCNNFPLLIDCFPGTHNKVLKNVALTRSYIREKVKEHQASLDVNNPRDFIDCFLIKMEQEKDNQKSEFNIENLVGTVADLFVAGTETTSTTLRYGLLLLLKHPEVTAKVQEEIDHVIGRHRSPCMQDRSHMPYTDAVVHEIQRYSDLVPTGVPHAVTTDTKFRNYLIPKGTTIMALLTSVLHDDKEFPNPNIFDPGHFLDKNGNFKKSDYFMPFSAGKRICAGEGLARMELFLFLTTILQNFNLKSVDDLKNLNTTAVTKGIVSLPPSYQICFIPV
# Procedure: as §1, §2, §3, §4, §5, §6, §7
# CYP2C9 = CYP2C9 (Homo sapiens (Human), UniProt P11712); assay: as above; type: in vitro ADME; conditions: read-out: IC50 in inhibiting CYP Enzyme System 2C9
# Sequence of CYP2C9 (P11712 whole entry): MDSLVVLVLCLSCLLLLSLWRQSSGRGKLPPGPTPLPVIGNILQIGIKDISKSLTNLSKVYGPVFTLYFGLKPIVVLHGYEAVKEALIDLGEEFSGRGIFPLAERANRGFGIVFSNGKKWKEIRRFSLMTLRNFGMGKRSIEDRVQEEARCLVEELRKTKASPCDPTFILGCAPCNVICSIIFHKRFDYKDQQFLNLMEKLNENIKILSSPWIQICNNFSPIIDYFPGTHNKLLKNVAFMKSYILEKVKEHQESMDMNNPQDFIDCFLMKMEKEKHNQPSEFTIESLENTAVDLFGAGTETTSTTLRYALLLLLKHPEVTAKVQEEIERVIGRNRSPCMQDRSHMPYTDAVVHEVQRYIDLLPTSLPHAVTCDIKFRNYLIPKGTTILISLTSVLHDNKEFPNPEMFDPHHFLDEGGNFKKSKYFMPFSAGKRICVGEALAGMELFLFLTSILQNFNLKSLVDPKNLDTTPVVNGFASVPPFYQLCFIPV
# Procedure: as §1, §2, §3, §4, §5, §6, §7
# CYP3A4 = CYP3A4 (Homo sapiens (Human), UniProt P08684); assay: as above; type: in vitro ADME
# Sequence of CYP3A4 (P08684 whole entry): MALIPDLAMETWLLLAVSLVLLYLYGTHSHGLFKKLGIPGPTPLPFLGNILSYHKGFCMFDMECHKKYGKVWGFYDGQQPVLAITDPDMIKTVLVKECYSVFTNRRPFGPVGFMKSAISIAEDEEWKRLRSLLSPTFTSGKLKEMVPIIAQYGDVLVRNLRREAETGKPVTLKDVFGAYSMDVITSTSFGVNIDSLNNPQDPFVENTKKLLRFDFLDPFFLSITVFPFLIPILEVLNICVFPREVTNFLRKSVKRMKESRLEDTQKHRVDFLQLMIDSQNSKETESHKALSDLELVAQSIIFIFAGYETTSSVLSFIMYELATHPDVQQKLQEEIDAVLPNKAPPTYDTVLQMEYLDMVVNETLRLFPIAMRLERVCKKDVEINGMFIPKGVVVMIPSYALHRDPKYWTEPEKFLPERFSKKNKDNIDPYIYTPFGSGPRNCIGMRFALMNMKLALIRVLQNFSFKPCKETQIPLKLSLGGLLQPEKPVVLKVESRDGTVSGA
# Procedure: as §1, §2, §3, §4, §5, §6, §7
# CYP2D6 = CYP2D6 (Homo sapiens (Human), UniProt P10635); assay: biochemical; type: in vitro ADME; conditions: human liver microsomes; read-out: IC50 in inhibiting CYP Enzyme System 2D6
# Sequence of CYP2D6 (P10635 whole entry): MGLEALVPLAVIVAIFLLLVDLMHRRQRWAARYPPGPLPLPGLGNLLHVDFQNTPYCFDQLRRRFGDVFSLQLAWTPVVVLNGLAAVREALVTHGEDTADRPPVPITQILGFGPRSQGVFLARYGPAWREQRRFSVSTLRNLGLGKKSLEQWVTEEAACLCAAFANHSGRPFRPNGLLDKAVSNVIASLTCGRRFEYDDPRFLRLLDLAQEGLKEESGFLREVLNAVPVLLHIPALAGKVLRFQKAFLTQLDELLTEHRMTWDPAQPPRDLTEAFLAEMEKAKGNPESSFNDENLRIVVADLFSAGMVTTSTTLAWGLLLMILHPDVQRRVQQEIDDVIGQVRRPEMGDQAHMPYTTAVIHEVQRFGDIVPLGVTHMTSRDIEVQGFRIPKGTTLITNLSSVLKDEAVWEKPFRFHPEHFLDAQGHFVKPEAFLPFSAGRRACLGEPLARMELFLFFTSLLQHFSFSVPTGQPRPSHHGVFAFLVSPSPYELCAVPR
# Procedure: as §1
# as §2, with “below: […]” for “below:”
# as §6, §7
# [2] = Liver microsome metabolic stability (rat); type: in vitro ADME; conditions: rat liver microsomes, read-out: Half Life t1/2, liver microsome metabolic stability (converted)
# Procedure: (§8) 8 μL human liver microsomes (20 mg/mL), 20 μL NADPH and 368 μL of 0.1 M phosphate buffer were mixed, and then pre-incubated at 37° C. for 5 minutes. 4 μL working solutions (test compounds or positive control) were added, respectively. When pre-incubated at 37° C., 50 μL incubation solutions were taken out at 0, 10, 20, 30, 45 and 60 minute, and thereto was added a 150 μL solution of internal standard ([…]) in acetonitrile. 4 μL rat liver microsomes (20 mg/mL), 10 μL NADPH and 184 μL of 0.1 M phosphate buffer were mixed, and then pre-incubated at 37° C. for 5 minutes. 2 μL working solutions (test compounds or positive control) were added, respectively. When pre-incubated at 37° C., 20 μL incubation solutions were taken out at 0, 10, 20, 30, 45 and 60 minute, and thereto was added a 180 μL solution of internal standard (0.25 M warfarin) in acetonitrile. All samples were vortexed and centrifuged at 4000 rpm for 15 min, and 150 μL supernatants were added to a 96-well plate, and then 5 μL supernatants were detected in LC/MS/MS system. Chromatographic column for analysis was C18 1.7 μm 2.1×50 mm (Waters). Triple quadrupole mass spectrometry (API4000, AB Company) was used in detection. A ratio of the peak area of CT-1225 to that of the internal standard was detected in positive ion mode. […]
# [3] = Liver microsome metabolic stability (human); type: in vitro ADME; conditions: human liver microsomes, read-out: Half Life t1/2, liver microsome metabolic stability (converted)
# Procedure: as §8
# serum DPP-IV = serum DPP-IV (Mus musculus (Mouse), UniProt P28843); assay: in vivo; conditions: for response vs control in vivo at 30 mg/kg: po, read-out: Specific activity of DPP-IV
# Sequence of serum DPP-IV (P28843 37-760): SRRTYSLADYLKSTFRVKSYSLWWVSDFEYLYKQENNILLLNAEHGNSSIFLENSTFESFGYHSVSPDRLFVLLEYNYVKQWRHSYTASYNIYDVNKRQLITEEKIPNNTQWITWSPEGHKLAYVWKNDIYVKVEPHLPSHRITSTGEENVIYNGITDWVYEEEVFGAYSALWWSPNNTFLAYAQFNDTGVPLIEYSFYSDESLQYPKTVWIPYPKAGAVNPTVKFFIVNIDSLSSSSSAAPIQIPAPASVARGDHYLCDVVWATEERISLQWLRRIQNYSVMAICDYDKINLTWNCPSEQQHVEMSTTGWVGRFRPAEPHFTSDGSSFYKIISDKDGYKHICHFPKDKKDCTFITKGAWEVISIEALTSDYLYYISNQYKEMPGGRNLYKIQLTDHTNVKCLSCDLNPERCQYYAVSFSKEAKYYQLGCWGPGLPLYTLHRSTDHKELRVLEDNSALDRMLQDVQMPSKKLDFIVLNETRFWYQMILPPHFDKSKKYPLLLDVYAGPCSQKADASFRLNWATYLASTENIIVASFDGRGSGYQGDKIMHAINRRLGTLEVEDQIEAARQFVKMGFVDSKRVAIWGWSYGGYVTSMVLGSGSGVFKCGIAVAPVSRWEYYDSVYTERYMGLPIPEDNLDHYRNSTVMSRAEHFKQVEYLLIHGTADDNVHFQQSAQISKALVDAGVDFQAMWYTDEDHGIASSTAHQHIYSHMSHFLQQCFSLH
structure (smiles),measurement,setting,value
"CS(=O)(=O)c1ccc2c(c1)CN([C@H]1CO[C@H](c3cc(F)ccc3F)[C@@H](N)C1)C2 [Example 4, (2R,3S,5R)-5-(5-methylsulfonylisoindolin-2-yl)-2-(2,5-difluorophenyl)tetrahydro-2H-pyran-3-amine]",AUC(0-inf),[1],45600 ng·h/mL
same,Cmax,[1],4390 ng/mL
same,Tmax,[1],1.67 h
same,half-life,[1],17.1 h
same,IC50,CYP1A2,> 25 µM
same,IC50,CYP2B6,> 25 µM
same,IC50,CYP2C19,> 25 µM
same,IC50,CYP2C8,> 25 µM
same,IC50,CYP2C9,> 25 µM
same,IC50,"CYP3A4; substrate Midazolam, read-out: IC50 in inhibiting CYP Enzyme System 3A4_Mid",> 25 µM
same,IC50,"CYP3A4; substrate Testosterone, read-out: IC50 in inhibiting CYP Enzyme System 3A4_Tes",> 25 µM
same,IC50,CYP2D6,> 25 µM
same,half-life,[2],8.26 h
same,half-life,[3],4.52 h
"N[C@H]1C[C@@H](N2Cc3ccc(S(=O)(=O)C4CC4)cc3C2)CO[C@@H]1c1cc(F)ccc1F [Example 9, (2R,3S,5R)-5-(5-cyclopropylsulfonylisoindolin-2-yl)-2-(2,5-difluorophenyl) tetrahydro-2H-pyran-3-amine]",AUC(0-inf),[1],52200 ng·h/mL
same,Cmax,[1],5960 ng/mL
same,Tmax,[1],2 h
same,half-life,[1],32.5 h
CS(=O)(=O)n1cc2c(n1)CN([C@H]1CO[C@H](c3cc(F)ccc3F)[C@@H](N)C1)C2 [Omarigliptin],half-life,[2],21.1 h
same,half-life,[3],4.09 h
same,response vs control in vivo at 30 mg/kg,serum DPP-IV; 2 h,8.4%
same,response vs control in vivo at 30 mg/kg,serum DPP-IV; 4 h,7.4%
same,response vs control in vivo at 30 mg/kg,serum DPP-IV; 10 h,9.1%
same,response vs control in vivo at 30 mg/kg,serum DPP-IV; 24 h,15.6%
same,response vs control in vivo at 30 mg/kg,serum DPP-IV; 34 h,20.2%
same,response vs control in vivo at 30 mg/kg,serum DPP-IV; 48 h,45.5%
same,response vs control in vivo at 30 mg/kg,serum DPP-IV; 58 h,41.2%
same,response vs control in vivo at 30 mg/kg,serum DPP-IV; 72 h,58.4%
same,response vs control in vivo at 30 mg/kg,serum DPP-IV; 96 h,68%
same,inhibition at 30 mg/kg,serum DPP-IV; read-out: inhibitory rate of serum DPP-IV activity in mice,> 70%

# — patent US10155775B2, “Substituted amino six-membered saturated heteroalicycles as long-acting DPP-IV inhibitors” (Centaurus Biopharma Co., Ltd., priority 2015, dated 2018)
